Measurements published in patent US20260092074A1, “Annelated Pyridines as Steroidogenesis Inhibitors, Preparation Method and Use Thereof” (Guangzhou Vinnocent Pharmaceutical Limited, priority 2022, published 2026).

Legend:
human CYP11B1 = biological target: T1, human CYP11B1 (Homo sapiens, UniProt P15538); experiment: Inhibition of hCYP11B1 in transfected V79 cells; type: cell-based; details: hamster V79 cells expressing human CYP11B1; substrate 11-deoxycortisol 200 nM
T1 construct: expressed in transfected cells
T1 sequence (P15538 25-503): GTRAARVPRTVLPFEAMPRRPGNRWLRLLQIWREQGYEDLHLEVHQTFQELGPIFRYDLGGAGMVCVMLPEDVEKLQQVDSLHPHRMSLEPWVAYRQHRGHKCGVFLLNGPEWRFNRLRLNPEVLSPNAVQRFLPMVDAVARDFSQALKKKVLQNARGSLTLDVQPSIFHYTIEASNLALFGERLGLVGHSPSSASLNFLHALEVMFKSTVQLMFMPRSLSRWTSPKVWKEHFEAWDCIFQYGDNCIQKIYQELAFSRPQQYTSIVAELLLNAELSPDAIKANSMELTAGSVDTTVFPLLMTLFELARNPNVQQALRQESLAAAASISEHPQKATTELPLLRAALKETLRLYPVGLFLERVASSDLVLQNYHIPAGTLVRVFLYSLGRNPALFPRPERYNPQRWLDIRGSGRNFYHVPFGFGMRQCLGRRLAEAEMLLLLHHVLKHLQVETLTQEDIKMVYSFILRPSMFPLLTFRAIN
In short: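 V79 hamster cells stably expressing human CYP11B1 and rat NADPH-P450 reductase were preincubated with compounds for 2 h. 11-Deoxycortisol (200 nM) was then added as substrate for 30 min before ethyl acetate quench. Substrate and product were quantified by LC-MS/MS or HPLC at 260 nm, and IC50 was derived from percent inhibition.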

human CYP11B2 = biological target: T2, human CYP11B2 (Homo sapiens, UniProt P19099); experiment: Inhibition of hCYP11B2 in transfected V79 cells; type: cell-based; details: hamster V79 cells expressing human CYP11B2; substrate 11-deoxycorticosterone 200 nM
T2 construct: expressed in transfected cells
T2 sequence (P19099 25-503): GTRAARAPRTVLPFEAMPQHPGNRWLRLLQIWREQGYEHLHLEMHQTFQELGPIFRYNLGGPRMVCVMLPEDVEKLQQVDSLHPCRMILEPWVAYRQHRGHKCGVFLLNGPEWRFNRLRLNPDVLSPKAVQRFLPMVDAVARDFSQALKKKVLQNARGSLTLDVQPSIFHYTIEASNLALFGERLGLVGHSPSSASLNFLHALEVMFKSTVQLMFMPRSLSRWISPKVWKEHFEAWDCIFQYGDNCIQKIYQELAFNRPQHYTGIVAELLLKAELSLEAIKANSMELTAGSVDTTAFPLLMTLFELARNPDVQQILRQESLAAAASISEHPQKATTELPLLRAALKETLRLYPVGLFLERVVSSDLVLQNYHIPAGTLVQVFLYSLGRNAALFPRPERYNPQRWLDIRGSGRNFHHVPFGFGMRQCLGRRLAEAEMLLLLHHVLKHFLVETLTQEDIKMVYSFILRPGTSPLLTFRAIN
In short: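 Hamster V79 cells stably co-expressing human CYP11B2 and rat NADPH-P450 reductase were pre-incubated with compounds for 2 hours, then given 200 nM 11-deoxycorticosterone for 30 minutes before ethyl acetate quench. Substrate and product were quantified by LC-MS/MS or HPLC at 260 nm, and IC50 was derived from percent inhibition.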

| IC50 (human CYP11B1) [nM] | IC50 (human CYP11B2) [nM] | SMILES |
| --- | --- | --- |
| 4220 | 55 | N#CC12CC(c3cncc4c3OCCN4C(=O)C3CN(Cc4cccc(F)c4)C3)(C1)C2 [O133, 3-(4-(1-(3-Fluorobenzyl)azetidine-3-carbonyl)-3,4-dihydro-2H-pyrido[4,3-b][1,4]oxazin-8-yl)bicyclo[1.1.1]pentane-1-carbonitrile] |
| 3580 | 52 | N#CN1CC2(C1)CN(c1cncc3c1OCCN3C(=O)C1CN(Cc3cccc(F)c3)C1)C2 [O134, 6-(4-(1-(3-Fluorobenzyl)azetidine-3-carbonyl)-3,4-dihydro-2H-pyrido[4,3-b][1,4]oxazin-8-yl)-2,6-diazaspiro[3.3]heptane-2-carbonitrile] |
| 4130 | 66 | O=C(C1CN(Cc2cccc(F)c2)C1)N1CCOc2c(N3CCn4cnnc4C3)cncc21 [O135, (8-(5,6-Dihydro-[1,2,4]triazolo[4,3-a]pyrazin-7 (8H)-yl)-2,3-dihydro-4H-pyrido[4,3-b][1,4]oxazin-4-yl)(1-(3-fluorobenzyl)azetidin-3-yl)methanone] |
| 2020 | 22 | N#Cc1ccc(-c2cncc3c2OCCN3C(=O)N2CC(Cc3cccc(F)c3)C2)cc1 [O136, 4-(4-(3-(3-Fluorobenzyl)azetidine-1-carbonyl)-3,4-dihydro-2H-pyrido[4,3-b][1,4]oxazin-8-yl)benzonitrile] |
| 3960 | 57 | O=C(C1CN(Cc2cccc(F)c2)C1)N1CCOc2c(N3CCn4ccnc4C3)cncc21 [O137, (8-(5,6-Dihydroimidazo[1,2-a]pyrazin-7 (8H)-yl)-2,3-dihydro-4H-pyrido[4,3-b][1,4]oxazin-4-yl)(1-(3-fluorobenzyl)azetidin-3-yl)methanone] |
| > 5000 | 451 | N#Cc1ccc(-c2cncc3c2SCCN3Cc2cccc(F)c2)cc1 [S1, 4-(4-(3-Fluorobenzyl)-3,4-dihydro-2H-pyrido[4,3-b][1,4]thiazin-8-yl)benzonitrile] |
| > 5000 | 473 | N#Cc1ccc(-c2cncc3c2SCCN3Cc2ccc(F)cc2)cc1 [S2, 4-(4-(4-Fluorobenzyl)-3,4-dihydro-2H-pyrido[4,3-b][1,4]thiazin-8-yl)benzonitrile] |
| > 5000 | 243 | N#Cc1ccc(-c2cncc3c2SCCN3Cc2cccc([N+](=O)[O-])c2)cc1 [S3, 4-(4-(3-Nitrobenzyl)-3,4-dihydro-2H-pyrido[4,3-b][1,4]thiazin-8-yl)benzonitrile] |
| 1370 | 34.8 | N#Cc1ccc(-c2cncc3c2SCCN3C(=O)c2cccc(F)c2)cc1 [S4, 4-(4-(3-Fluorobenzoyl)-3,4-dihydro-2H-pyrido[4,3-b][1,4]thiazin-8-yl)benzonitrile] |
| 2980 | 21 | N#Cc1ccc(-c2cncc3c2SCCN3C(=O)c2ccc(F)cc2)cc1 [S5, 4-(4-(4-Fluorobenzoyl)-3,4-dihydro-2H-pyrido[4,3-b][1,4]thiazin-8-yl)benzonitrile] |
| 1740 | 53 | COc1ccc(C(=O)N2CCSc3c(-c4ccc(C#N)cc4)cncc32)cc1 [S6, 4-(4-(4-Methoxybenzoyl)-3,4-dihydro-2H-pyrido[4,3-b][1,4]thiazin-8-yl)benzonitrile] |
| 4390 | 88 | N#Cc1ccc(-c2cncc3c2SCCN3C(=O)c2cccnc2)cc1 [S7, 4-(4-Nicotinoyl-3,4-dihydro-2H-pyrido[4,3-b][1,4]thiazin-8-yl)benzonitrile] |
| 1.5 | 0.1 | N#Cc1ccc(-c2cncc3c2SCCN3S(=O)(=O)c2ccccc2)cc1 [S8, 4-(4-(Phenylsulfonyl)-3,4-dihydro-2H-pyrido[4,3-b][1,4]thiazin-8-yl)benzonitrile] |
| 0.7 | 0.2 | N#Cc1ccc(-c2cncc3c2SCCN3S(=O)(=O)c2cccc(F)c2)cc1 [S9, 4-(4-((3-Fluorophenyl)sulfonyl)-3,4-dihydro-2H-pyrido[4,3-b][1,4]thiazin-8-yl)benzonitrile] |
| 0.8 | 0.1 | N#Cc1ccc(-c2cncc3c2SCCN3S(=O)(=O)c2ccc(F)cc2)cc1 [S10, 4-(4-((4-Fluorophenyl)sulfonyl)-3,4-dihydro-2H-pyrido[4,3-b][1,4]thiazin-8-yl)benzonitrile] |
| 2.1 | 0.15 | Cc1cccc(S(=O)(=O)N2CCSc3c(-c4ccc(C#N)cc4)cncc32)c1 [S11, 4-(4-(m-Tolylsulfonyl)-3,4-dihydro-2H-pyrido[4,3-b][1,4]thiazin-8-yl)benzonitrile] |
| 2.8 | 0.18 | Cc1ccc(S(=O)(=O)N2CCSc3c(-c4ccc(C#N)cc4)cncc32)cc1 [S12, 4-(4-Tosyl-3,4-dihydro-2H-pyrido[4,3-b][1,4]thiazin-8-yl)benzonitrile] |
| 1.2 | 0.1 | COc1ccc(S(=O)(=O)N2CCSc3c(-c4ccc(C#N)cc4)cncc32)cc1 [S13, 4-(4-((4-Methoxyphenyl)sulfonyl)-3,4-dihydro-2H-pyrido[4,3-b][1,4]thiazin-8-yl)benzonitrile] |
| 4.8 | 0.25 | N#Cc1ccc(-c2cncc3c2SCCN3S(=O)(=O)c2cccc(Cl)c2)cc1 [S14, 4-(4-((3-Chlorophenyl)sulfonyl)-3,4-dihydro-2H-pyrido[4,3-b][1,4]thiazin-8-yl)benzonitrile] |
| 2.2 | 0.05 | N#Cc1ccc(-c2cncc3c2SCCN3S(=O)(=O)c2ccc(Cl)cc2)cc1 [S15, 4-(4-((4-Chlorophenyl)sulfonyl)-3,4-dihydro-2H-pyrido[4,3-b][1,4]thiazin-8-yl)benzonitrile] |
| 12 | 1.05 | N#Cc1ccc(-c2cncc3c2SCCN3S(=O)(=O)c2cccc(C(F)(F)F)c2)cc1 [S16, 4-(4-((3-(Trifluoromethyl)phenyl)sulfonyl)-3,4-dihydro-2H-pyrido[4,3-b][1,4]thiazin-8-yl) benzonitrile] |
| 10.2 | 0.4 | N#Cc1ccc(-c2cncc3c2SCCN3S(=O)(=O)c2ccc(C(F)(F)F)cc2)cc1 [S17, 4-(4-((4-(Trifluoromethyl)phenyl)sulfonyl)-3,4-dihydro-2H-pyrido[4,3-b][1,4]thiazin-8-yl) benzonitrile] |
| 2 | 0.1 | N#Cc1ccc(-c2cncc3c2SCCN3S(=O)(=O)c2cccc([N+](=O)[O-])c2)cc1 [S18, 4-(4-((3-Nitrophenyl)sulfonyl)-3,4-dihydro-2H-pyrido[4,3-b][1,4]thiazin-8-yl)benzonitrile] |
| 1.2 | 0.1 | N#Cc1ccc(-c2cncc3c2SCCN3S(=O)(=O)c2ccc([N+](=O)[O-])cc2)cc1 [S19, 4-(4-((4-Nitrophenyl)sulfonyl)-3,4-dihydro-2H-pyrido[4,3-b][1,4]thiazin-8-yl)benzonitrile] |
| 3.1 | 0.1 | N#Cc1ccc(-c2cncc3c2SCCN3S(=O)(=O)c2cccc(C#N)c2)cc1 [S20, 3-((8-(4-Cyanophenyl)-2,3-dihydro-4H-pyrido[4,3-b][1,4]thiazin-4-yl)sulfonyl)benzonitrile] |
| 15 | 0.3 | N#Cc1ccc(-c2cncc3c2SCCN3S(=O)(=O)c2ccc(C#N)cc2)cc1 [S21, 4-((8-(4-Cyanophenyl)-2,3-dihydro-4H-pyrido[4,3-b][1,4]thiazin-4-yl)sulfonyl)benzonitrile] |
| 51 | 5.2 | N#Cc1ccc(-c2cncc3c2SCCN3S(=O)(=O)c2cccc3ccccc23)cc1 [S22, 4-(4-(Naphthalen-1-ylsulfonyl)-3,4-dihydro-2H-pyrido[4,3-b][1,4]thiazin-8-yl)benzonitrile] |
| 1.9 | 0.2 | N#Cc1ccc(-c2cncc3c2SCCN3S(=O)(=O)c2ccc3ccccc3c2)cc1 [S23, 4-(4-(Naphthalen-2-ylsulfonyl)-3,4-dihydro-2H-pyrido[4,3-b][1,4]thiazin-8-yl)benzonitrile] |
| 1.1 | 0.13 | N#Cc1ccc(-c2cncc3c2SCCN3S(=O)(=O)c2cccs2)cc1 [S24, 4-(4-(Thiophen-2-ylsulfonyl)-3,4-dihydro-2H-pyrido[4,3-b][1,4]thiazin-8-yl)benzonitrile] |
